This test addresses T1, MMP-14 (Homo sapiens, UniProt P50281).
T1 construct: The catalytic domain enzyme was expressed in E. coli inclusion bodies, solubilized in urea; made in house
Put plainly: In vitro MMP inhibition, IC50 determination (fluorogenic substrate I). The test is classed as biochemical. To be noted: value in parentheses; read-out: MMP-14 (IC-50). As for the experimental part:
Several hydroxamic acids and salts thereof were analyzed in in vitro assays to determine their ability to inhibit the MMP cleavage of peptide substrates. […] and IC50 constants were calculated from the assayed hydroxamic acid-MMP interactions. Human recombinant MMP-1, MMP-2, MMP-9, MMP-13, and MMP-14 were used in this assay. All enzymes were prepared in Assignee's laboratories following usual laboratory procedures. Protocols for the preparation and use of these enzymes are available in the scientific literature. See, e.g., Enzyme Nomenclature (Academic Press, San Diego, Calif., 1992) (and the citations therein). See also, Freije et al., “Molecular cloning and expression of collagenase-3, a novel human matrix metalloproteinase produced by breast carcinomas,” J Biol. Chem., 269(24), 16766-16773 (1994). The MMP-14 full length cDNA was provided by Dr. Gregory Goldberg of Washington University (St. Louis, Mo.). The catalytic domain enzyme was expressed in E. coli inclusion bodies, solubilized in urea, purified on a preparative […] reverse phase HPLC column, and then refolded in the presence of zinc acetate and purified for use. All MMPs were activated using 4-aminophenylmercuric acetate (“APMA”, Sigma Chemical, St. Louis, Mo.) or trypsin. MMP-9 also was activated using human recombinant MMP-3 (purified in Assignee's laboratory following standard cloning and purification techniques). […] Substrate (I) was purchased from Baychem (Redwood City, Calif.), and substrate II was prepared Assignee's laboratory. Substrate I was used in the IC50 determination assays, while substrate II was used in the Ki determination assays. In the absence of MMP inhibitory activity, either substrate is cleaved at the Gly-Leu peptide bond. […] The stock solutions of the assayed hydroxamic acids (or salts thereof) were prepared in 1% dimethyl sulfoxide (DMSO). […] The experiment controls contained the same amount of Buffer A/DMSO as the assayed sample, but contained no hydroxamic acid (or salt thereof). The assays from which the IC50 determinations were made were performed as follows. […] Louis, Mo.). The assayed hydroxamic acid samples were incubated in MicrofluorTM White Plates (Dynatech, Chantilly, Va.) and analyzed on a Perkin Elmer […] plate reader (Norwalk, Conn.). The excitation wavelength was 328 nm, and the emission wavelength-415 nm. […] As stated in the previous paragraph, samples containing varying concentrations of the same assayed hydroxamic acid were prepared. Inhibition was measured as a reduction in fluorescent intensity as a function of MMP inhibitor concentration. […] All values in Table 2 are given in nM units. The IC50 measurements are in parenthesis.

Structures are written as SMILES. “And” between values parts separate entries of the source, which are not always exact repeats. Equal values may be shown once.

These results are taken from US20050209278A1, “Piperidinyl- and piperazinyl-sulfonylmethyl hydroxamic acids and their use as protease inhibitors” (priority 2002, published 2005).

Turning to `CCCCOc1ccc(N2CCN(S(=O)(=O)C3(C(=O)NO)CCN(c4ccc(C)cc4)CC3)CC2)cc1` [Example 295], the IC50 is over 10 µM.

On to `CCCCOc1ccc(N2CCN(S(=O)(=O)C3(C(=O)NO)CCN(c4ccc(C)cc4)CC3)CC2)cc1F` [Example 296], for which the IC50 is over 10 µM.

Regarding `COCCOc1ccc(N2CCN(S(=O)(=O)C3(C(=O)NO)CCN(C4CC4)CC3)CC2)cc1F` [Example 297], the IC50 was > 10 µM and 6.47 µM.

On to `CCCCOc1ccc(N2CCN(S(=O)(=O)C3(C(=O)NO)CCN(CC4CC4)CC3)CC2)cc1` [Example 298], for which the IC50 was over 10 µM.

Take `CCCCOc1ccc(N2CCN(S(=O)(=O)C3(C(=O)NO)CCN(C4CC4)CC3)CC2)cc1` [Example 301]: the IC50 is 5.63 µM.

Take `C#CCN1CCC(C(=O)NO)(S(=O)(=O)N2CCN(c3ccc(OCCCC)cc3)CC2)CC1` [Example 303]: the IC50 is 2.24 µM.
